Results from ChEMBL document CHEMBL4385608, “5-Aryl-1,3,4-oxadiazol-2-ylthioalkanoic Acids: A Highly Potent New Class of Inhibitors of Rho/Myocardin-Related Transcription Factor (MRTF)/Serum Response Factor (SRF)-Mediated Gene Transcription as Potential Antifibrotic Agents for Scleroderma” (J Med Chem, 2019).
pIC50: −log10 of the molar value. Values after ≈ are worked out from the molar mass of the structure shown. Blank lines part the entries; values can stand above or below the compound they belong to. Active and inactive are the calls of the source. The rule behind the calls is not given here.

Columns and labels:
PC-3 [1] = assay: Cytotoxicity against human PC3 cells assessed as reduction in cell viability up to 100 uM by WST-1 assay relative to control; type: cell-based
[2] = Inhibition of Rho/MRTF/SRF pathway (unknown origin) expressed in human PC3 cells assessed as reduction in Galpha12 Q231L-stimulated MRTF-selective SRE.L promoter-driven luciferase activity after overnight incubation by luminescence assay; type: cell-based
[3] = Oral bioavailability in CD-1 mouse at 20 mg/kg by LC-MS/MS analysis; type: ADME, organism-based; conditions: in vivo
[4] = Cmax in CD-1 mouse at 10 mg/kg, iv by LC-MS/MS analysis; type: ADME, organism-based; parameters: dose 10 mg/kg, route intravenous; conditions: in vivo
[5] = Cmax in CD-1 mouse at 20 mg/kg, po by LC-MS/MS analysis; type: ADME, organism-based; parameters: dose 20 mg/kg, route oral; conditions: in vivo
[6] = Half-life in CD-1 mouse liver microsomes at 1 uM in presence of NADPH by LC-MS/MS analysis; type: ADME, Microsome
[7] = Clearance in CD-1 mouse at 10 mg/kg, iv by LC-MS/MS analysis; type: ADME, organism-based; conditions: in vivo
[8] = AUC in CD-1 mouse at 10 mg/kg, iv by LC-MS/MS analysis; type: ADME, organism-based; conditions: in vivo
[9] = Thermodynamic solubility of the compound; type: physicochemical; conditions: read-out: Therm_solubility
[10] = AUC in CD-1 mouse at 20 mg/kg, po by LC-MS/MS analysis; type: ADME, organism-based; conditions: in vivo
[11] = Half-life in CD-1 mouse at 10 mg/kg, iv by LC-MS/MS analysis; type: ADME, organism-based; conditions: in vivo
[12] = Inhibition of Rho/MRTF/SRF pathway (unknown origin) expressed in HEK293T cells assessed as reduction in Galpha12-stimulated MRTF-selective SRE.L promoter-driven luciferase activity after overnight incubation by luminescence assay; type: cell-based, Homo sapiens
HEK-293T = assay: Cytotoxicity against HEK293T cells assessed as reduction in cell viability up to 100 uM by WST-1 assay relative to control; type: cell-based; conditions: human
[13] = Half-life in CD-1 mouse at 20 mg/kg, po by LC-MS/MS analysis; type: ADME, organism-based; conditions: in vivo
PC-3 [14] = assay: Cytotoxicity against human PC3 cells assessed as reduction in cell viability up to 100 uM by CellTiter-Fluor assay; type: cell-based
Homo sapiens [15] = species on record: Homo sapiens; assay: Inhibition of Rho/MRTF/SRF pathway in human primary dermal fibroblasts assessed as reduction in LPA-stimulated CTGF mRNA expression by measuring CTGF mRNA level at 10^-6 M preincubated for 72 hrs followed by LPA stimulation and measured after 1 hr by qPCR analysis relative to control; parameters: scale not given: the % may be the effect or the level left
Homo sapiens [16] = species on record: Homo sapiens; assay: Inhibition of Rho/MRTF/SRF pathway (unknown origin) expressed in human PC3 cells assessed as reduction in Galpha12 Q231L-stimulated MRTF-selective SRE.L promoter-driven luciferase activity up to 100 uM after overnight incubation by luminescence assay; type: cell-based
[17] = Oral bioavailability in CD-1 mouse at 30 mg/kg by LC-MS/MS analysis; type: ADME, organism-based; conditions: in vivo
[18] = AUC in CD-1 mouse at 3 mg/kg, po by LC-MS/MS analysis; type: ADME, organism-based; conditions: in vivo
[19] = Half-life in CD-1 mouse at 30 mg/kg, po by LC-MS/MS analysis; type: ADME, organism-based; conditions: in vivo
[20] = Half-life in CD-1 mouse at 3 mg/kg, po by LC-MS/MS analysis; type: ADME, organism-based; conditions: in vivo
[21] = Cmax in CD-1 mouse at 10 mg/kg, po by LC-MS/MS analysis; type: ADME, organism-based; parameters: dose 10 mg/kg, route oral; conditions: in vivo
[22] = Cmax in CD-1 mouse at 3 mg/kg, iv by LC-MS/MS analysis; type: ADME, organism-based; parameters: dose 3 mg/kg, route intravenous; conditions: in vivo
[23] = Half-life in CD-1 mouse at 3 mg/kg, iv by LC-MS/MS analysis; type: ADME, organism-based; conditions: in vivo
[24] = Oral bioavailability in CD-1 mouse at 3 mg/kg by LC-MS/MS analysis; type: ADME, organism-based; conditions: in vivo
Mus musculus [25] = assay: Antifibrotic activity in bleomycin-induced C57BL/6 mouse model of dermal fibrosis assessed as decrease in hydroxyproline content at 3 to 10 mg/kg, po administered via gavage for 14 days measured post-last dose; type: functional, organism-based
Mus musculus [26] = assay: Antifibrotic activity in bleomycin-induced C57BL/6 mouse model of dermal fibrosis assessed as decrease in dermal thickness at 3 to 10 mg/kg, po administered via gavage for 14 days measured post-last dose by Masson's trichrome-staining based microscopic method; type: functional, organism-based
[27] = Oral bioavailability in CD-1 mouse at 10 mg/kg by LC-MS/MS analysis; type: ADME, organism-based; conditions: in vivo
[28] = AUC in CD-1 mouse at 30 mg/kg, po by LC-MS/MS analysis; type: ADME, organism-based; conditions: in vivo
Homo sapiens [29] = species on record: Homo sapiens; assay: Inhibition of Rho/MRTF/SRF pathway in human primary dermal fibroblasts assessed as reduction in LPA-stimulated CTGF mRNA expression preincubated for 48 hrs followed by LPA stimulation and measured after 1 hr by qPCR analysis
Homo sapiens [30] = species on record: Homo sapiens; assay: Inhibition of Rho/MRTF/SRF pathway in human primary dermal fibroblasts assessed as reduction in LPA-stimulated CTGF mRNA expression preincubated for 72 hrs followed by LPA stimulation and measured after 1 hr by qPCR analysis
[31] = Clearance in CD-1 mouse at 3 mg/kg, iv by LC-MS/MS analysis; type: ADME, organism-based; conditions: in vivo
[32] = Equilibrium solubility of the compound in phosphate buffer saline; type: physicochemical
[33] = AUC in CD-1 mouse at 10 mg/kg, po by LC-MS/MS analysis; type: ADME, organism-based; conditions: in vivo
[34] = Cmax in CD-1 mouse at 3 mg/kg, po by LC-MS/MS analysis; type: ADME, organism-based; parameters: dose 3 mg/kg, route oral; conditions: in vivo
[35] = Cmax in CD-1 mouse at 30 mg/kg, po by LC-MS/MS analysis; type: ADME, organism-based; parameters: dose 30 mg/kg, route oral; conditions: in vivo
[36] = AUC in CD-1 mouse at 3 mg/kg, iv by LC-MS/MS analysis; type: ADME, organism-based; conditions: in vivo
[37] = Half-life in CD-1 mouse at 10 mg/kg, po by LC-MS/MS analysis; type: ADME, organism-based; conditions: in vivo

SMILES: CNC(=O)CCSc1nnc(-c2ccc(Cl)cc2Cl)o1
Activity (PC-3 [1]): < 5%

SMILES: Cc1occc1-c1nnc(SCCC(=O)O)o1
pIC50 [2]: < 4.00

SMILES: O=C(O)CCCSc1nnc(-c2ccc(Cl)cc2Cl)o1
bioavailability [3]: 52%
Cmax [4]: 35600 ng/mL
Cmax [5]: 23200 ng/mL
t1/2 [6]: > 60 min
clearance [7]: 15.5 mL/min/kg
AUC [8]: 10700 ng·h/mL
solubility thermodynamic [9]: 841 µM (≈ 280 µg/mL)
AUC [10]: 11100 ng·h/mL
Activity (PC-3 [1]): < 5%
half-life [11]: 84 min
pIC50 [2]: 8.74
pIC50 [12]: 9.08
Activity (HEK-293T): < 5%
half-life [13]: 72 min

SMILES: O=C(O)CCCSc1nnc(-c2cccc(C3CC3)c2Cl)o1
pIC50 [12]: 10.72
Activity (HEK-293T): < 5%

SMILES: O=C(O)CCCSc1nnc(-c2ccc(C(F)(F)F)cc2)o1
pIC50 [12]: 7.34
Activity (HEK-293T): < 5%

SMILES: O=C(O)CCCS(=O)(=O)c1nnc(-c2ccc(Cl)cc2Cl)o1
pIC50 [12]: < 4.00

SMILES: c1ccc(-c2nnc(SCCC3OCCCO3)o2)cc1
pIC50 [2]: < 4.00

SMILES: O=C(O)CCCSc1nnc(-c2ccc(OC3CC3)cc2Cl)o1
t1/2 [6]: > 60 min
pIC50 [12]: 8.89
Activity (HEK-293T): < 5%

SMILES: O=C(O)CCCSc1nnc(-c2ccc(OC3COC3)cc2Cl)o1
pIC50 [12]: 6.43
Activity (HEK-293T): < 5%

SMILES: COc1ccc(-c2nnc(SCCCC(=O)O)o2)c(Cl)c1
pIC50 [12]: 8.70
Activity (HEK-293T): < 5%

SMILES: Cc1ccc(=O)n(-c2ccccc2)c1 [PIRFENIDONE]
Activity (PC-3 [14]): Toxic
Activity (Homo sapiens [15]): 91%
inhibition (Homo sapiens [16]): inactive

SMILES: O=C(O)CCCCSc1nnc(-c2ccc(Cl)cc2Cl)o1
Activity (PC-3 [1]): < 5%

SMILES: CC(C)(F)c1ccc(-c2nnc(SCCCC(=O)O)o2)c(Cl)c1
pIC50 [12]: 9.30
Activity (HEK-293T): < 5%

SMILES: O=C(O)CCCSc1nnc(-c2ccc(C3CC3)cc2Cl)o1
bioavailability [17]: 29%
AUC [18]: 361 ng·h/mL
t1/2 [6]: 47 min
half-life [19]: 132 min
half-life [20]: 96 min
Cmax [21]: 1430 ng/mL
Cmax [22]: 8140 ng/mL
Activity (PC-3 [1]): < 5%
half-life [23]: 102 min
pIC50 [2]: 12.00
bioavailability [24]: 11%
Activity (Mus musculus [25]): Active
Activity (Mus musculus [26]): Active
bioavailability [27]: 17%
pIC50 [12]: 12.00
AUC [28]: 9500 ng·h/mL
inhibition (Homo sapiens [29]): inactive
inhibition (Homo sapiens [30]): Dose-dependent effect
Activity (HEK-293T): < 5%
clearance [31]: 15.4 mL/min/kg
solubility thermodynamic [32]: > 1000 µM
AUC [33]: 1830 ng·h/mL
Cmax [34]: 397 ng/mL
Cmax [35]: 10100 ng/mL
AUC [36]: 3260 ng·h/mL
half-life [37]: 108 min

SMILES: O=C(O)CCCSc1nnc(-c2ccc(Br)cc2Cl)o1
pIC50 [12]: 10.15
Activity (HEK-293T): < 5%

SMILES: O=C(O)CCCOc1nnc(-c2ccc(Cl)cc2Cl)o1
pIC50 [12]: < 4.00

SMILES: CCc1ccc(-c2nnc(SCCCC(=O)O)o2)c(Cl)c1
pIC50 [12]: 12.15
Activity (HEK-293T): < 5%

Second part, led by results:

pIC50 [2]: 7.60
SMILES: O=C(O)CCSc1nnc(-c2ccccc2Cl)o1
Activity (PC-3 [1]): < 5%

pIC50 [2]: 4.06
SMILES: O=C(O)CCSc1nnc(-c2cccnc2)o1

pIC50 [2]: 5.51
SMILES: COc1ccccc1-c1nnc(SCCC(=O)O)o1
Activity (PC-3 [1]): < 5%

pIC50 [2]: < 4.00
SMILES: O=C(O)CCSc1nnc(-c2ccncc2)o1

pIC50 [2]: < 4.00
SMILES: O=C(O)CCSc1nc2ccccc2n1Cc1ccccc1

pIC50 [2]: 6.74
SMILES: Cc1cccc(-c2nnc(SCCC(=O)O)o2)c1
Activity (PC-3 [1]): < 5%

pIC50 [2]: 5.46
SMILES: O=C(O)CCSc1nnc(-c2ccccc2)o1
Activity (PC-3 [1]): < 5%

pIC50 [2]: 6.80
SMILES: COc1ccc(-c2nnc(SCCC(=O)O)o2)cc1
Activity (PC-3 [1]): < 5%
